Laboratory results reported in patent US20220119354A1, “DIAMINO-SUBSTITUTED PYRIDINES AND PYRIMIDINES AS HERBICIDES” (FMC Corporation, priority 2019, published 2022).

Columns and labels:
Type in all cases: in vivo
[1] = system: foxtail, giant (Setaria faberii); experiment: Test A preemergence, giant foxtail; details: 0 to 100 scale; for Foxtail, Giant plant response rating: 0 is no effect, 100 is complete control
Outline: (§1)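 Visual injury scored against untreated controls about 10 d after treatment, scale 0 = no effect to 100 = complete control. Compounds, formulated with surfactant in a non-phytotoxic solvent, went on as directed soil spray preemergence or onto 2–10 cm, one- to two-leaf plants postemergence; loam–sand soil, greenhouse.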

[2] = system: barnyardgrass (Echinochloa crus-galli); experiment: Test B flooded paddy test, barnyardgrass; details: Flood, 250 g ai/ha, applied to paddy water, 2-leaf stage, visual evaluation after 13 to 15 d
Outline: (§2)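 Visual injury scores run from 0 (no effect) to 100 (complete control), assigned by comparison with controls 13 to 15 d after treatment. Treatment went into floodwater standing 3 cm over the soil of pots holding 2-leaf plants.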

[3] = system: sedge, umbrella (small-flower umbrella sedge, Cyperus difformis); experiment: Test B flooded paddy test, umbrella sedge; details: Flood, 250 g ai/ha, applied to paddy water, 2-leaf stage, visual evaluation after 13 to 15 d
Outline: as §2

rice (Oryza sativa) = experiment: Test B flooded paddy test, rice; details: Flood, 250 g ai/ha, applied to paddy water, 2-leaf stage, visual evaluation after 13 to 15 d
Outline: as §2

[4] = system: ragweed (common ragweed, Ambrosia elatior); experiment: Test A preemergence, ragweed; details: 0 to 100 scale; for Ragweed plant response rating: 0 is no effect, 100 is complete control
Outline: as §1

[5] = system: foxtail, giant (Setaria faberii); experiment: Test A postemergence, giant foxtail; details: 0 to 100 scale
Outline: as §1

[6] = system: barnyardgrass (Echinochloa crus-galli); experiment: Test A postemergence, barnyardgrass; details: 0 to 100 scale
Outline: as §1

[7] = system: barnyardgrass (Echinochloa crus-galli); experiment: Test A preemergence, barnyardgrass; details: 0 to 100 scale; for Barnyardgrass plant response rating: 0 is no effect, 100 is complete control
Outline: as §1

corn (Zea mays) = experiment: Test A postemergence, corn; details: 0 to 100 scale
Outline: as §1

[8] = system: wheat (Triticum aestivum); experiment: Test A postemergence, wheat; details: 0 to 100 scale
Outline: as §1

[9] = system: ryegrass, Italian (Lolium multiflorum); experiment: Test A postemergence, Italian ryegrass; details: 0 to 100 scale
Outline: as §1

[10] = system: galium (catchweed bedstraw, Galium aparine); experiment: Test A postemergence, galium; details: 0 to 100 scale
Outline: as §1

[11] = system: ragweed (common ragweed, Ambrosia elatior); experiment: Test A postemergence, ragweed; details: 0 to 100 scale
Outline: as §1

[12] = system: blackgrass (Alopecurus myosuroides); experiment: Test A postemergence, blackgrass; details: 0 to 100 scale
Outline: as §1

[13] = system: ryegrass, Italian (Lolium multiflorum); experiment: Test A preemergence, Italian ryegrass; details: 0 to 100 scale; for Ryegrass, Italian plant response rating: 0 is no effect, 100 is complete control
Outline: as §1

[14] = system: pigweed (Amaranthus retroflexus); experiment: Test A preemergence, pigweed; details: 0 to 100 scale; for Pigweed plant response rating: 0 is no effect, 100 is complete control
Outline: as §1

kochia (Kochia scoparia) [15] = experiment: Test A preemergence, kochia; details: 0 to 100 scale; for Kochia plant response rating: 0 is no effect, 100 is complete control
Outline: as §1

[16] = system: ducksalad (Heteranthera limosa); experiment: Test B flooded paddy test, ducksalad; details: Flood, 250 g ai/ha, applied to paddy water, 2-leaf stage, visual evaluation after 13 to 15 d
Outline: as §2

kochia (Kochia scoparia) [17] = experiment: Test A postemergence, kochia; details: 0 to 100 scale
Outline: as §1

[18] = system: pigweed (Amaranthus retroflexus); experiment: Test A postemergence, pigweed; details: 0 to 100 scale
Outline: as §1

[19] = 125 g ai/ha, 0 no effect, 100 complete control
[20] = 500 g ai/ha, 0 no effect, 100 complete control

C[C@H](Nc1ncc(C(F)(F)F)c(N)n1)c1cc2cccc(F)c2o1 [Compound 72]
0: Foxtail, Giant plant response rating ([1]; 125 g ai/ha) | Foxtail, Giant plant response rating ([1]; 500 g ai/ha) | Plant response rating, Barnyardgrass (0 to 100 scale, 0 is no effect, 100 is complete control) [2] | Plant response rating, Sedge, Umbrella (0 to 100 scale, 0 is no effect, 100 is complete control) [3] | Plant response rating, Rice (0 to 100 scale, 0 is no effect, 100 is complete control) (rice (Oryza sativa)) | Ragweed plant response rating ([4]; 125 g ai/ha) | Ragweed plant response rating ([4]; 500 g ai/ha) | Plant response rating, Foxtail, Giant [5, 19] | Plant response rating, Foxtail, Giant [5, 20] | Plant response rating, Barnyardgrass [6, 19] | Plant response rating, Barnyardgrass [6, 20] | Barnyardgrass plant response rating ([7]; 125 g ai/ha) | Barnyardgrass plant response rating ([7]; 500 g ai/ha) | Plant response rating, Corn (corn (Zea mays); [19]) | Plant response rating, Corn (corn (Zea mays); [20]) | Plant response rating, Wheat [8, 19] | Plant response rating, Wheat [8, 20] | Plant response rating, Ryegrass, Italian [9, 19] | Plant response rating, Ryegrass, Italian [9, 20] | Plant response rating, Galium [10, 19] | Plant response rating, Ragweed [11, 19] | Plant response rating, Blackgrass [12, 19] | Plant response rating, Blackgrass [12, 20] | Ryegrass, Italian plant response rating ([13]; 125 g ai/ha) | Ryegrass, Italian plant response rating ([13]; 500 g ai/ha) | Pigweed plant response rating ([14]; 125 g ai/ha) | Kochia plant response rating (kochia (Kochia scoparia) [15]; 125 g ai/ha) | Kochia plant response rating (kochia (Kochia scoparia) [15]; 500 g ai/ha) | Plant response rating, Ducksalad (0 to 100 scale, 0 is no effect, 100 is complete control) [16] | Plant response rating, Kochia (kochia (Kochia scoparia) [17]; [19])
30: Plant response rating, Ragweed [11, 20] | Plant response rating, Kochia (kochia (Kochia scoparia) [17]; [20])
40: Plant response rating, Galium [10, 20] | Plant response rating, Pigweed [18, 19]
50: Plant response rating, Pigweed [18, 20]
80: Pigweed plant response rating ([14]; 500 g ai/ha)

CC(Nc1nc(N)c(C(F)(F)F)c(C(F)(F)F)n1)c1cc2ccccc2o1 (racemic) [Compound 58]
0: Foxtail, Giant plant response rating ([1]; 125 g ai/ha) | Foxtail, Giant plant response rating ([1]; 500 g ai/ha) | Plant response rating, Barnyardgrass (0 to 100 scale, 0 is no effect, 100 is complete control) [2] | Plant response rating, Sedge, Umbrella (0 to 100 scale, 0 is no effect, 100 is complete control) [3] | Plant response rating, Rice (0 to 100 scale, 0 is no effect, 100 is complete control) (rice (Oryza sativa)) | Ragweed plant response rating ([4]; 125 g ai/ha) | Ragweed plant response rating ([4]; 500 g ai/ha) | Plant response rating, Foxtail, Giant [5, 19] | Plant response rating, Barnyardgrass [6, 19] | Barnyardgrass plant response rating ([7]; 125 g ai/ha) | Barnyardgrass plant response rating ([7]; 500 g ai/ha) | Plant response rating, Corn (corn (Zea mays); [19]) | Plant response rating, Corn (corn (Zea mays); [20]) | Plant response rating, Wheat [8, 19] | Plant response rating, Wheat [8, 20] | Plant response rating, Ryegrass, Italian [9, 19] | Plant response rating, Ryegrass, Italian [9, 20] | Plant response rating, Galium [10, 19] | Plant response rating, Ragweed [11, 19] | Plant response rating, Blackgrass [12, 19] | Plant response rating, Blackgrass [12, 20] | Ryegrass, Italian plant response rating ([13]; 125 g ai/ha) | Ryegrass, Italian plant response rating ([13]; 500 g ai/ha) | Pigweed plant response rating ([14]; 125 g ai/ha) | Pigweed plant response rating ([14]; 500 g ai/ha) | Kochia plant response rating (kochia (Kochia scoparia) [15]; 125 g ai/ha) | Kochia plant response rating (kochia (Kochia scoparia) [15]; 500 g ai/ha) | Plant response rating, Ducksalad (0 to 100 scale, 0 is no effect, 100 is complete control) [16]
20: Plant response rating, Galium [10, 20] | Plant response rating, Ragweed [11, 20] | Plant response rating, Pigweed [18, 19]
30: Plant response rating, Kochia (kochia (Kochia scoparia) [17]; [19])
60: Plant response rating, Pigweed [18, 20]
10: Plant response rating, Foxtail, Giant [5, 20]
80: Plant response rating, Kochia (kochia (Kochia scoparia) [17]; [20])
50: Plant response rating, Barnyardgrass [6, 20]

C[C@@H](Nc1ncc(C(F)(F)F)c(N)n1)c1cc2ccc(C(F)(F)F)cc2o1 [Compound 15]
40: Plant response rating, Ragweed ([11]; 500 g ai/ha) | Plant response rating, Kochia (kochia (Kochia scoparia) [15]; 125 g ai/ha) | Plant response rating, Kochia (kochia (Kochia scoparia) [17]; 125 g ai/ha)
100: Plant response rating, Pigweed ([14]; 500 g ai/ha)
20: Plant response rating, Foxtail, Giant ([1]; 125 g ai/ha) | Plant response rating, Barnyardgrass ([7]; 125 g ai/ha) | Plant response rating, Corn (corn (Zea mays); 500 g ai/ha) | Plant response rating, Ragweed ([11]; 125 g ai/ha)
80: Plant response rating, Foxtail, Giant ([5]; 500 g ai/ha) | Plant response rating, Galium ([10]; 500 g ai/ha) | Plant response rating, Pigweed ([14]; 125 g ai/ha) | Plant response rating, Kochia (kochia (Kochia scoparia) [17]; 500 g ai/ha)
30: Plant response rating, Ragweed ([4]; 125 g ai/ha) | Plant response rating, Foxtail, Giant ([5]; 125 g ai/ha) | Plant response rating, Barnyardgrass ([6]; 125 g ai/ha) | Plant response rating, Barnyardgrass ([6]; 500 g ai/ha) | Plant response rating, Ryegrass, Italian ([9]; 500 g ai/ha) | Plant response rating, Blackgrass ([12]; 500 g ai/ha)
70: Plant response rating, Barnyardgrass ([7]; 500 g ai/ha) | Plant response rating, Ryegrass, Italian ([13]; 500 g ai/ha)
60: Plant response rating, Galium ([10]; 125 g ai/ha)
90: Plant response rating, Foxtail, Giant ([1]; 500 g ai/ha) | Plant response rating, Ragweed ([4]; 500 g ai/ha) | Plant response rating, Pigweed ([18]; 125 g ai/ha) | Plant response rating, Pigweed ([18]; 500 g ai/ha)
50: Plant response rating, Kochia (kochia (Kochia scoparia) [15]; 500 g ai/ha)
0: Plant response rating, Barnyardgrass (0 to 100 scale, 0 is no effect, 100 is complete control) [2] | Plant response rating, Sedge, Umbrella (0 to 100 scale, 0 is no effect, 100 is complete control) [3] | Plant response rating, Rice (0 to 100 scale, 0 is no effect, 100 is complete control) (rice (Oryza sativa)) | Plant response rating, Corn (corn (Zea mays); 125 g ai/ha) | Plant response rating, Wheat ([8]; 125 g ai/ha) | Plant response rating, Wheat ([8]; 500 g ai/ha) | Plant response rating, Ryegrass, Italian ([9]; 125 g ai/ha) | Plant response rating, Blackgrass ([12]; 125 g ai/ha) | Plant response rating, Ryegrass, Italian ([13]; 125 g ai/ha) | Plant response rating, Ducksalad (0 to 100 scale, 0 is no effect, 100 is complete control) [16]
